{
  "source": "BindingDB's records for doi:10.1016/j.ejmech.2020.112373",
  "about": "(Newlink Genetics, 2020)",
  "key": {"[1]": {"biological_target": "Solute carrier family 22 member 1, OCT1 (Homo sapiens) (UniProt O15245)", "sequence (O15245 whole entry, looked up)": "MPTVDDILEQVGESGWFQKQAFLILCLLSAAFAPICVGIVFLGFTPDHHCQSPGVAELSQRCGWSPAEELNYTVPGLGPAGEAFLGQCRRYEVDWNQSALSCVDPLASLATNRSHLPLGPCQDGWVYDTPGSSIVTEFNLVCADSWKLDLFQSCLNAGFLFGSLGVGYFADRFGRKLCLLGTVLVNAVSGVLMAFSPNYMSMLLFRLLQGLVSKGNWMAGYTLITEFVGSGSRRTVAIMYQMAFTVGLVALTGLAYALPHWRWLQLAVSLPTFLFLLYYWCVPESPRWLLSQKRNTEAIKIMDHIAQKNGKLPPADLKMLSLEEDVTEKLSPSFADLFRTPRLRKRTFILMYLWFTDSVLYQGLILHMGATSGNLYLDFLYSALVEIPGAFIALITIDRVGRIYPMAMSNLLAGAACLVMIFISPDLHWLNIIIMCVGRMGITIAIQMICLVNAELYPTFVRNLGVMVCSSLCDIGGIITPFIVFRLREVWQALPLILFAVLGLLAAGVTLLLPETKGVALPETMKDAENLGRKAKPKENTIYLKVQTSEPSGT", "test": "Inhibition of OCT1 (unknown origin) expressed in HEK293 cells"}, "[2]": {"biological_target": "Solute carrier family 22 member 2, OCT2 (Homo sapiens) (UniProt O15244)", "sequence (O15244 whole entry, looked up)": "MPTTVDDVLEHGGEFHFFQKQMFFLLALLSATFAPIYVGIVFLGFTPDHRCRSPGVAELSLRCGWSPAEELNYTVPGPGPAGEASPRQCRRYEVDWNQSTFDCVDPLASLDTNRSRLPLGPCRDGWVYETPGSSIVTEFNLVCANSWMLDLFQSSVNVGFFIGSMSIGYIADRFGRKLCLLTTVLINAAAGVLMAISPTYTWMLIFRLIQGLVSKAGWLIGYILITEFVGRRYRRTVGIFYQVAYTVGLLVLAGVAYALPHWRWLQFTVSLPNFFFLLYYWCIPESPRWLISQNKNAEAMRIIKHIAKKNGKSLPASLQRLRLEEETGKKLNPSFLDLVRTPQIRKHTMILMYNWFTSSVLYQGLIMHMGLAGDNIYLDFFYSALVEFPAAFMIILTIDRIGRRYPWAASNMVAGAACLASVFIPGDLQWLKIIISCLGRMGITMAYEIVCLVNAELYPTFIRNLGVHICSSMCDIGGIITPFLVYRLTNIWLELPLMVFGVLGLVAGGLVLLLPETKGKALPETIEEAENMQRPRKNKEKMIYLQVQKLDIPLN", "test": "Inhibition of OCT2 (unknown origin) expressed in HEK293 cells"}},
  "data": [
    {"compound": "CCOC(=O)[C@@H](Cc1cn(C)c2ccccc12)NC(=O)[C@@H](N)CC(C)C", "values": [
      {"measurement": "IC50", "setting": "[1]", "result": "> 50", "unit": "µM"},
      {"measurement": "IC50", "setting": "[2]", "result": "> 50", "unit": "µM"}
    ]}
  ]
}
